From PubChem BioAssay AID2060901 (Molecular Pharmacology Branch, DTP, NCI, 2025)
Values belong to the compound of their own block, whether it stands above or below them.

Tested on: 422866-222-R5-J1-PDC complex spheroids viability
Test: Anticancer human tumor 422866-222-R5-J1-PDC patient-derived pancreatic adenocarcinoma cell line growth inhibition [RAS]
Details: for IC50: curve of first compound; for viability, T/C: stronger effect = lower value
In short: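 Multi-cell-type spheroids: tumor cells plus HUVEC endothelial cells and mesenchymal stem cells. RAS-pathway inhibitors were combined with targeted agents, each dosed in half-log steps down from clinical Cmax, or from 10 microM when Cmax was unknown.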

[1] = second compound 0.000949 µM, first compound 0.0316 µM
[2] = second compound 0.000949 µM, first compound 0.1 µM
[3] = second compound 0.000949 µM, first compound 0.316 µM
[4] = second compound 0.000949 µM, first compound 1 µM
[5] = second compound 0.003 µM, first compound 0.0316 µM
[6] = second compound 0.003 µM, first compound 0.1 µM
[7] = second compound 0.003 µM, first compound 0.316 µM
[8] = second compound 0.003 µM, first compound 1 µM
[9] = second compound 0.00949 µM, first compound 0.0316 µM
[10] = second compound 0.00949 µM, first compound 0.1 µM
[11] = second compound 0.00949 µM, first compound 0.316 µM
[12] = second compound 0.00949 µM, first compound 1 µM
[13] = second compound 0.03 µM, first compound 0.0316 µM
[14] = second compound 0.03 µM, first compound 0.1 µM
[15] = second compound 0.03 µM, first compound 0.316 µM
[16] = second compound 0.03 µM, first compound 1 µM
[17] = second compound 0.0949 µM, first compound 0.0316 µM
[18] = second compound 0.0949 µM, first compound 0.1 µM
[19] = second compound 0.0949 µM, first compound 0.316 µM
[20] = second compound 0.0949 µM, first compound 1 µM
[21] = second compound 0.3 µM, first compound 0.0316 µM
[22] = second compound 0.3 µM, first compound 0.1 µM
[23] = second compound 0.3 µM, first compound 0.316 µM
[24] = second compound 0.3 µM, first compound 1 µM
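Note: spheroids exposed to compounds for 7 days.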
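Throughout, for viability, T/C: 100% = DMSO vehicle control viability.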

IC50 (second compound 0.0316 µM): 328 nM | IC50 (second compound 0.1 µM): 126 nM | IC50 (second compound 0.316 µM): 61.6 nM | IC50 (second compound 1 µM): < 31.6 nM | IC50 (second compound 3.16 µM): < 31.6 nM | IC50 (second compound 10 µM): < 31.6 nM
SMILES: Cc1nc(N2CCC3(CC2)COC(C)C3N)c(CO)nc1Sc1ccnc(N)c1Cl (stereo unspecified) + C#Cc1c(F)ccc2cc(O)cc(-c3ncc4c(N5CC6CCC(C5)N6)nc(OCC56CCCN5CC(F)C6)nc4c3F)c12
viability, T/C (second compound 0.0316 µM, first compound 0.0316 µM): 74.7% | viability, T/C (second compound 0.0316 µM, first compound 0.1 µM): 65.3% | viability, T/C (second compound 0.0316 µM, first compound 0.316 µM): 49.2% | viability, T/C (second compound 0.0316 µM, first compound 1 µM): 42.2% | viability, T/C (second compound 0.0316 µM, first compound 3.16 µM): 39.6% | viability, T/C (second compound 0.0316 µM, first compound 10 µM): 35.9% | viability, T/C (second compound 0.1 µM, first compound 0.0316 µM): 80.5% | viability, T/C (second compound 0.1 µM, first compound 0.1 µM): 52.5% | viability, T/C (second compound 0.1 µM, first compound 0.316 µM): 38.9% | viability, T/C (second compound 0.1 µM, first compound 1 µM): 36.8% | viability, T/C (second compound 0.1 µM, first compound 3.16 µM): 34.8% | viability, T/C (second compound 0.1 µM, first compound 10 µM): 30.5% | viability, T/C (second compound 0.316 µM, first compound 0.0316 µM): 62.4% | viability, T/C (second compound 0.316 µM, first compound 0.1 µM): 40.5% | viability, T/C (second compound 0.316 µM, first compound 0.316 µM): 33.2% | viability, T/C (second compound 0.316 µM, first compound 1 µM): 30.3% | viability, T/C (second compound 0.316 µM, first compound 3.16 µM): 29.9% | viability, T/C (second compound 0.316 µM, first compound 10 µM): 26.7% | viability, T/C (second compound 1 µM, first compound 0.0316 µM): 37.6% | viability, T/C (second compound 1 µM, first compound 0.1 µM): 46.7% | viability, T/C (second compound 1 µM, first compound 0.316 µM): 24.3% | viability, T/C (second compound 1 µM, first compound 1 µM): 22% | viability, T/C (second compound 1 µM, first compound 3.16 µM): 24.5% | viability, T/C (second compound 1 µM, first compound 10 µM): 20.9% | viability, T/C (second compound 3.16 µM, first compound 0.0316 µM): 24.5% | viability, T/C (second compound 3.16 µM, first compound 0.1 µM): 23.1% | viability, T/C (second compound 3.16 µM, first compound 0.316 µM): 20.3% | viability, T/C (second compound 3.16 µM, first compound 1 µM): 16.5% | viability, T/C (second compound 3.16 µM, first compound 3.16 µM): 18% | viability, T/C (second compound 3.16 µM, first compound 10 µM): 18.3% | viability, T/C (second compound 10 µM, first compound 0.0316 µM): 16.5% | viability, T/C (second compound 10 µM, first compound 0.1 µM): 19.6% | viability, T/C (second compound 10 µM, first compound 0.316 µM): 18% | viability, T/C (second compound 10 µM, first compound 1 µM): 14.8% | viability, T/C (second compound 10 µM, first compound 3.16 µM): 15% | viability, T/C (second compound 10 µM, first compound 10 µM): 16.3%

IC50 (second compound 0.000949 µM): < 3.16 nM | IC50 (second compound 0.003 µM): < 3.16 nM | IC50 (second compound 0.00949 µM): < 3.16 nM | IC50 (second compound 0.03 µM): < 3.16 nM | IC50 (second compound 0.0949 µM): < 3.16 nM | IC50 (second compound 0.3 µM): < 3.16 nM
SMILES: C=CC(=O)N1CCN(c2nc(OCC3CCCN3C)nc3c(F)c(-c4nc(N)cc(C)c4C(F)(F)F)c(Cl)cc23)C(C)C1 (stereo unspecified) + CCn1c(-c2cccnc2C(C)OC)c2c3cc(ccc31)N1CCOC(CC(NC(=O)C(C(C)C)N(C)C(=O)C3(F)CCN(C(=O)C#CC(C)(C)N(C)C)CC3)C(=O)N3CCCC(N3)C(=O)OCC(C)(C)C2)C1
viability, T/C (second compound 0.000949 µM, first compound 0.00316 µM): 24.9% | viability, T/C (second compound 0.000949 µM, first compound 0.01 µM): 25.5% | viability, T/C [1]: 23.4% | viability, T/C [2]: 23.8% | viability, T/C [3]: 21.1% | viability, T/C [4]: 22.7% | viability, T/C (second compound 0.003 µM, first compound 0.00316 µM): 24.1% | viability, T/C (second compound 0.003 µM, first compound 0.01 µM): 25.6% | viability, T/C [5]: 21.5% | viability, T/C [6]: 22.8% | viability, T/C [7]: 21.1% | viability, T/C [8]: 24% | viability, T/C (second compound 0.00949 µM, first compound 0.00316 µM): 22.8% | viability, T/C (second compound 0.00949 µM, first compound 0.01 µM): 24.2% | viability, T/C [9]: 23.3% | viability, T/C [10]: 20.6% | viability, T/C [11]: 21.6% | viability, T/C [12]: 22.1% | viability, T/C (second compound 0.03 µM, first compound 0.00316 µM): 21.2% | viability, T/C (second compound 0.03 µM, first compound 0.01 µM): 23.9% | viability, T/C [13]: 17.8% | viability, T/C [14]: 18.9% | viability, T/C [15]: 21.1% | viability, T/C [16]: 22.4% | viability, T/C (second compound 0.0949 µM, first compound 0.00316 µM): 21.4% | viability, T/C (second compound 0.0949 µM, first compound 0.01 µM): 19.8% | viability, T/C [17]: 20.1% | viability, T/C [18]: 20.2% | viability, T/C [19]: 19.7% | viability, T/C [20]: 21.3% | viability, T/C (second compound 0.3 µM, first compound 0.00316 µM): 18% | viability, T/C (second compound 0.3 µM, first compound 0.01 µM): 18% | viability, T/C [21]: 20.5% | viability, T/C [22]: 19.6% | viability, T/C [23]: 16.5% | viability, T/C [24]: 20%

IC50 (second compound 0.000949 µM): < 31.6 nM | IC50 (second compound 0.003 µM): < 31.6 nM | IC50 (second compound 0.00949 µM): < 31.6 nM | IC50 (second compound 0.03 µM): < 31.6 nM | IC50 (second compound 0.0949 µM): < 31.6 nM | IC50 (second compound 0.3 µM): < 31.6 nM
SMILES: CC(Nc1ccc2c(c1)OCCn1cc(N3C(=O)OCC3C(F)F)nc1-2)C(N)=O (stereo unspecified) + CCn1c(-c2cccnc2C(C)OC)c2c3cc(ccc31)N1CCOC(CC(NC(=O)C(C(C)C)N(C)C(=O)C3(F)CCN(C(=O)C#CC(C)(C)N(C)C)CC3)C(=O)N3CCCC(N3)C(=O)OCC(C)(C)C2)C1
viability, T/C [1]: 18.2% | viability, T/C [2]: 15.9% | viability, T/C [3]: 10.3% | viability, T/C [4]: 9.14% | viability, T/C (second compound 0.000949 µM, first compound 3.16 µM): 26.9% | viability, T/C (second compound 0.000949 µM, first compound 10 µM): 6.64% | viability, T/C [5]: 14.5% | viability, T/C [6]: 11.7% | viability, T/C [7]: 9.43% | viability, T/C [8]: 9.79% | viability, T/C (second compound 0.003 µM, first compound 3.16 µM): 19.8% | viability, T/C (second compound 0.003 µM, first compound 10 µM): 5.92% | viability, T/C [9]: 14.6% | viability, T/C [10]: 11.4% | viability, T/C [11]: 9.65% | viability, T/C [12]: 6.24% | viability, T/C (second compound 0.00949 µM, first compound 3.16 µM): 17.5% | viability, T/C (second compound 0.00949 µM, first compound 10 µM): 5.13% | viability, T/C [13]: 12.7% | viability, T/C [14]: 10.8% | viability, T/C [15]: 8.08% | viability, T/C [16]: 5.84% | viability, T/C (second compound 0.03 µM, first compound 3.16 µM): 16.7% | viability, T/C (second compound 0.03 µM, first compound 10 µM): 4.66% | viability, T/C [17]: 13.7% | viability, T/C [18]: 9.18% | viability, T/C [19]: 8.36% | viability, T/C [20]: 5.71% | viability, T/C (second compound 0.0949 µM, first compound 3.16 µM): 17.2% | viability, T/C (second compound 0.0949 µM, first compound 10 µM): 3.5% | viability, T/C [21]: 10.9% | viability, T/C [22]: 8.1% | viability, T/C [23]: 5.84% | viability, T/C [24]: 3.47% | viability, T/C (second compound 0.3 µM, first compound 3.16 µM): 10% | viability, T/C (second compound 0.3 µM, first compound 10 µM): 2.74%
